Reference: ChEMBL document CHEMBL1152136, “2-Trifluoroacetylthiophene oxadiazoles as potent and selective class II human histone deacetylase inhibitors” (Bioorg Med Chem Lett, 2008)

What was measured:
Histone deacetylase 4 = Histone deacetylase 4 (Homo sapiens, UniProt P56524); experiment: Inhibition of His-tagged HDAC4 catalytic domain expressed in Escherichia coli
[1] = target: T1, Protein deacetylase HDAC6 (Homo sapiens, UniProt Q9UBN7); experiment: Inhibition of HDAC6
T1 sequence (Q9UBN7 whole entry): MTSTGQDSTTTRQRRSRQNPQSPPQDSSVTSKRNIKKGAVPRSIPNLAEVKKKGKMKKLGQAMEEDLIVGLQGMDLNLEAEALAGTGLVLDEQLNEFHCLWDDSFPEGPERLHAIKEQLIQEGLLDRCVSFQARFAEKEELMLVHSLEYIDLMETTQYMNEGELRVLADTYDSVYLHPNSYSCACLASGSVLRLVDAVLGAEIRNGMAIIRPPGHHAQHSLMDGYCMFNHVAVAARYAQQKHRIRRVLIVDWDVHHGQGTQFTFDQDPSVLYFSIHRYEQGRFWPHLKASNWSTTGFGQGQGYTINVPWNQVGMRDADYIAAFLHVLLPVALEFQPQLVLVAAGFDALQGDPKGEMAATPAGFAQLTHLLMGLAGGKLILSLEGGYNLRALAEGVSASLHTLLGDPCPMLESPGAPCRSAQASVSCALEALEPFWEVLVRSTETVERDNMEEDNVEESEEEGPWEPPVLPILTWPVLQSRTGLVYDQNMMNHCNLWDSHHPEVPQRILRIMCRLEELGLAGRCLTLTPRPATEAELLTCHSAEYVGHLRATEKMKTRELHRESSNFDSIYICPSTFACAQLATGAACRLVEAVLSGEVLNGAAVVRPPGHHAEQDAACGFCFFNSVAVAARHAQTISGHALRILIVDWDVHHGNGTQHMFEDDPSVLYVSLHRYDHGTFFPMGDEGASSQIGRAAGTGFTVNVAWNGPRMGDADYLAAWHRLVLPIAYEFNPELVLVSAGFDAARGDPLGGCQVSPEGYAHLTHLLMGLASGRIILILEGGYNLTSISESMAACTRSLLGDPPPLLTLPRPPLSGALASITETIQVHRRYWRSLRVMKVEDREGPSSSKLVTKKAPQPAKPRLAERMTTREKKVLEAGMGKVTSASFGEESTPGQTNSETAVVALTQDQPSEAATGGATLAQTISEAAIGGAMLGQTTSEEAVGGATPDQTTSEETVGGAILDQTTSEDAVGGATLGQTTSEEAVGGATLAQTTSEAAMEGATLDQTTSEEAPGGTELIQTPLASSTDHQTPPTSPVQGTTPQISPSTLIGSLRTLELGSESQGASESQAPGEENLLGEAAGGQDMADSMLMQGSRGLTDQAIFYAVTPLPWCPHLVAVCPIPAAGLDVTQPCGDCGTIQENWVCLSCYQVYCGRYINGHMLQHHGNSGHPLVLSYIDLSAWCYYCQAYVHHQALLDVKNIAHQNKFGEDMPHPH

Histone deacetylase 1 = Histone deacetylase 1 (Homo sapiens, UniProt Q13547); experiment: Inhibition of HDAC1
Histone deacetylase 3 = Histone deacetylase 3 (Homo sapiens, UniProt O15379); experiment: Inhibition of HDAC3
[2] = Metabolic stability in S9 fraction of human HCT116 cells assessed as half life in presence of NADPH and regenerating system; format: ADME, cell-based, HCT-116
[3] = Selectivity for His-tagged HDAC4 catalytic domain over HDAC1
[4] = Metabolic stability in human HCT116 cells assessed as half life at 5 uM in presence of 10% FBS; format: ADME, cell-based, HCT-116
[5] = target: T1, Protein deacetylase HDAC6; experiment: Inhibition of HDAC6 in human HCT116 cells assessed as inhibition of alpha-tubulin deacetylation; format: cell-based, HCT-116

Chain of Histone deacetylase 4 (P56524 whole entry, the tested form may be a part): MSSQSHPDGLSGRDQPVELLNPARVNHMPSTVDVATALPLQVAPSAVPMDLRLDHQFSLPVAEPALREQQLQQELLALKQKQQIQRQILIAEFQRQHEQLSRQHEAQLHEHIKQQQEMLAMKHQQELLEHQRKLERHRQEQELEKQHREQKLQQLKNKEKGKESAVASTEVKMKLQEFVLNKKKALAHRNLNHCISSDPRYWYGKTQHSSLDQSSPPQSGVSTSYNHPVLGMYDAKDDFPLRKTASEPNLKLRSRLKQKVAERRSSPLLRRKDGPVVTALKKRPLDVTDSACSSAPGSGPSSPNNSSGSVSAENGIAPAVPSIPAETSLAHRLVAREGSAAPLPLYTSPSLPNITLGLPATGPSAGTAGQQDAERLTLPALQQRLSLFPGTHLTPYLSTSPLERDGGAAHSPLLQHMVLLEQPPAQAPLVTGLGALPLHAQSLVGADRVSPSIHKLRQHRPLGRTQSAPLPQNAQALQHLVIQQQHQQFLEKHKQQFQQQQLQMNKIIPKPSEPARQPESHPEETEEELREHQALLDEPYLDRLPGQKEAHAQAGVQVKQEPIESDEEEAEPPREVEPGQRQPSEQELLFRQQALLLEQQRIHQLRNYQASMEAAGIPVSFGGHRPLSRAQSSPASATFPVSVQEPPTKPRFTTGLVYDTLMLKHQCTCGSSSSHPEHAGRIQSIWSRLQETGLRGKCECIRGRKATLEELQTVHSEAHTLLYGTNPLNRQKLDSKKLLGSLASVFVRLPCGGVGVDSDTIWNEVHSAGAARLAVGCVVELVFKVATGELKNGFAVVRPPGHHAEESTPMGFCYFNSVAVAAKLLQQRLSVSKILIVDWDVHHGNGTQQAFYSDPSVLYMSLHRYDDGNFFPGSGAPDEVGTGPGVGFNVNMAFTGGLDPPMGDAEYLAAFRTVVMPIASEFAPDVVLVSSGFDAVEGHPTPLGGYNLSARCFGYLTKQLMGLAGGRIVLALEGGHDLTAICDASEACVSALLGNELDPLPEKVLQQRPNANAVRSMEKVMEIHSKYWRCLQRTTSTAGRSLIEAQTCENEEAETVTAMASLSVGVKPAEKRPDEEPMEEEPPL
Chain of Histone deacetylase 3 (O15379 whole entry): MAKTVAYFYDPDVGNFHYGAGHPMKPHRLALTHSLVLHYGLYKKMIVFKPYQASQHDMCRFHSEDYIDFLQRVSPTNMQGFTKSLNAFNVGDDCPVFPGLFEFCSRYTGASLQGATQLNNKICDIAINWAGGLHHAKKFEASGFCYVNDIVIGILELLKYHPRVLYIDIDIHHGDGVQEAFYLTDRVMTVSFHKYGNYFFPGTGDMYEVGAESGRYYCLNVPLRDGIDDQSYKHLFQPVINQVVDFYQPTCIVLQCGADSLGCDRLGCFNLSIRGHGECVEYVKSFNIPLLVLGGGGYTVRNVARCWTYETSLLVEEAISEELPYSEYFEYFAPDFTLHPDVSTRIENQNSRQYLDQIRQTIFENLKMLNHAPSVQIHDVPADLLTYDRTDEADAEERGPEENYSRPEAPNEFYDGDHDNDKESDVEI
Chain of Histone deacetylase 1 (Q13547 whole entry): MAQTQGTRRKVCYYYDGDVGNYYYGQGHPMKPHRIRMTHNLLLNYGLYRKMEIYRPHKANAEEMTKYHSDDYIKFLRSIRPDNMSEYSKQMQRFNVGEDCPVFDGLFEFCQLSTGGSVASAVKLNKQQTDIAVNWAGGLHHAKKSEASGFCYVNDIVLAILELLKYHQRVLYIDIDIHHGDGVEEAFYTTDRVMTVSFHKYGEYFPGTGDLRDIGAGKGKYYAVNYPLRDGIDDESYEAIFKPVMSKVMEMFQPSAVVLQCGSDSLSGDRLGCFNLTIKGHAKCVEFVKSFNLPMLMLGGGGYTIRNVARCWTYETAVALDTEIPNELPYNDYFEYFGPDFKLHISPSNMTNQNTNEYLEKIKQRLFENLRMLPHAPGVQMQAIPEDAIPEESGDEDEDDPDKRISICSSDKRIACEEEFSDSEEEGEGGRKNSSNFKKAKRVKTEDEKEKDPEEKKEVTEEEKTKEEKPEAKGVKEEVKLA

SMILES | IC50 (Histone deacetylase 4) [µM] | IC50 [1] [µM] | IC50 (Histone deacetylase 1) [µM] | IC50 (Histone deacetylase 3) [µM] | half-life [2] [min] | Ratio IC50 [3] | half-life at 5 µM [4] [min] | IC50 [5] [µM]
O=C(c1ccc(-c2ncc(-c3ccccc3)s2)s1)C(F)(F)F | 1.5 | 1.35 | > 10 | – | – | – | – | –
Cc1ccc(-c2noc(-c3ccc(C(=O)C(F)(F)F)s3)n2)cc1 | 0.11 | 0.86 | 6.8 | – | – | – | – | –
O=C1COc2ccccc2N1Cc1noc(-c2ccc(C(=O)C(F)(F)F)s2)n1 | 0.015 | 0.41 | 1.17 | > 1 | 25 | > 75 | – | –
O=C(c1ccc(-c2nc(-c3ccc(F)cc3)no2)s1)C(F)(F)F | 0.22 | 0.27 | 5.9 | > 1 | – | – | – | –
O=C(c1ccc(-c2nc(-c3cccc(C(F)(F)F)c3)no2)s1)C(F)(F)F | 0.32 | 2.45 | 17.5 | > 1 | – | – | – | –
Cc1cccc(-c2noc(-c3ccc(C(=O)C(F)(F)F)s3)n2)c1 | 0.28 | 0.68 | 6.54 | > 1 | – | – | – | –
CCNC(=O)c1ccc(C(=O)C(F)(F)F)s1 | – | – | – | > 10 | – | – | – | –
CCCS(=O)(=O)Cc1noc(-c2ccc(C(=O)C(F)(F)F)s2)n1 | 0.03 | 0.24 | 2.22 | > 1 | 45 | > 70 | 720 | 0.5
Cc1noc(-c2ccc(C(=O)C(F)(F)F)s2)n1 | 0.075 | 0.65 | 7.6 | 7.1 | > 120 | – | – | –
O=C(c1ccc(-c2nc(-c3ccc(F)cc3F)no2)s1)C(F)(F)F | 0.12 | 0.58 | 4.2 | > 1 | > 120 | – | – | –
CN(Cc1ccccc1)C(=O)c1ccc(C(=O)C(F)(F)F)s1 | – | – | – | – | 15 | – | – | –
Cc1ccc(-c2nnc(-c3ccc(C(=O)C(F)(F)F)s3)o2)cc1 | 0.27 | 0.6 | 1.8 | > 1 | – | – | – | –
O=C(c1ccc(-c2nc(COc3ccc(-c4nnco4)cc3)no2)s1)C(F)(F)F | – | – | 4.8 | – | 18 | – | – | –
CC(C)(C)c1ccc(-c2noc(-c3ccc(C(=O)C(F)(F)F)s3)n2)cc1 | > 2 | 3.54 | 16.6 | > 1 | – | – | – | –
O=C(c1ccc(-c2nc(-c3ccccc3)no2)s1)C(F)(F)F | 0.11 | 0.58 | 7.4 | > 1 | – | – | – | –
O=C(c1ccc(-c2nc(Cc3cccs3)no2)s1)C(F)(F)F | 0.015 | 0.17 | 0.99 | 0.63 | 35 | 70 | – | –
O=C(c1ccc(-c2nc(-c3ccc(C(F)(F)F)cc3)no2)s1)C(F)(F)F | 0.2 | 11 | > 10 | – | – | – | – | –
CS(=O)(=O)Cc1noc(-c2ccc(C(=O)C(F)(F)F)s2)n1 | 0.03 | 0.32 | 2.47 | > 1 | > 120 | > 70 | 780 | 0.64
O=C(c1ccc(-c2nnc(-c3cccs3)o2)s1)C(F)(F)F | 0.45 | 0.16 | 2.6 | 0.5 | – | – | – | –
O=C(Cc1noc(-c2ccc(C(=O)C(F)(F)F)s2)n1)N1CCCC1 | 0.06 | 0.71 | 5.9 | – | – | > 75 | – | –
O=C(c1ccc(-c2nc(-c3ccc(Cl)cc3Cl)no2)s1)C(F)(F)F | 0.24 | 3 | > 5 | – | – | – | – | –
O=C(c1ccc(-c2nc(-c3ccncc3)no2)s1)C(F)(F)F | 0.59 | 0.57 | > 10 | – | – | – | – | –
O=C(c1ccc(-c2nc(-c3ccccn3)no2)s1)C(F)(F)F | 0.09 | 0.5 | 2.8 | – | – | – | – | –
O=C(c1ccc(-c2nc(-c3cccs3)no2)s1)C(F)(F)F | 0.095 | 0.67 | 2.9 | – | – | – | – | –
O=C(NCc1ccccc1)c1ccc(C(=O)C(F)(F)F)s1 | 0.243 | 0.37 | 0.467 | 0.52 | – | – | – | –
O=C(c1ccc(-c2nc(CS(=O)(=O)Cc3ccc(F)cc3)no2)s1)C(F)(F)F | 0.06 | 0.7 | 6.55 | > 1 | 35 | – | 330 | –
O=C(c1ccc(-c2nnc(-c3ccccc3)o2)s1)C(F)(F)F | 0.42 | 0.33 | 2.97 | 0.5 | – | – | – | –
O=C(c1ccc(-c2nc(CS(=O)(=O)c3cccs3)no2)s1)C(F)(F)F | 0.035 | 0.52 | 3.89 | > 1 | 44 | > 100 | 360 | –
O=C(c1ccc(-c2nc(-c3cccnc3)no2)s1)C(F)(F)F | 0.07 | 0.84 | 2.2 | – | – | – | – | –
